How the values were obtained:
Assay type in all cases: cell-based
Sh-IR = settings: isomer that blocks Sh-IR
[1] = system: voltage-gated Ca2+ channels expressed in GH3 cells; experiment: Photosensitization of voltage-gated Ca2+ channels expressed in GH3 cells
[2] = system: endogenous K+ channels in dissociated hippocampal neurons; settings: 20 μM extracellular treatment, Iss at +40 mV, n = 10
[3] = system: voltage-gated Na+ channels expressed in GH3 cells; experiment: Photosensitization of voltage-gated Na+ channels expressed in GH3 cells

Compound | Active Isomer (Sh-IR) | photosensitization of voltage-gated Ca2+ channels [1] | % of Iss blocked (380 vs 500 nm) [2] | photosensitization of voltage-gated Na+ channels [3]
C=CC(=O)Nc1ccc(N=Nc2ccc(NC(=O)C[N+](CC)(CC)CC)cc2)cc1 [Compound 1] | trans |  |  | 
CC[N+](CC)(CC)CC(=O)Nc1ccc(/N=N/c2ccc(NC(=O)c3ccccc3)cc2)cc1 [Compound 7, Benzoyl-Azo-QA] | trans | did not photosensitize | 35.5% ± 4.7 | did not photosensitize
Propyl-Azo-QA [Compound 10] | preferentially blocks in the cis form |  |  | 

— article PMC4040390 (Angewandte Chemie (International ed. in English), 2009)
